Experimental data taken from patent publication US6857485B2, “Shale hydration inhibition agent and method of use” (M-I LLC, priority 2000, dated 2005).
Blank lines part the entries; values can stand above or below the compound they belong to.

What was measured:
[1] = Viscosity of product from neutralization of Jeffamine D-230 with acids; type: physicochemical; details: for Viscosity (centipoises) at pH 9.5: Jeffamine D-230 neutralized with the acid to pH 9.5; for Viscosity (centipoises) at pH 10.5: Jeffamine D-230 neutralized with the acid to pH 10.5
Text: Synthesis of the salt: Synthesis of the salts from the free amine compounds is simple and should be well known and within the skill of a person of ordinary skill in the art. In one method the salt is formed in situ within a fully formulated mud by the addition of the acid directly to the mud. Alternatively the amine compound may be neutralized first with acid and then the salt added to the mud. When conducting the neutralization reaction between the amine compound and the acid compound either concentrated or diluted acid may be used. When concentrated acid is utilized, typically a slurry of the salt is formed. When the acid is diluted in water, an aqueous solution containing the amine salt is formed.

[2] = Hot-Rolling Dispersion in fresh water, Oxford shale; details: 350 ml freshwater with 10.5 g shale inhibitor, hot rolled 16 hours at 150° F.
Protocol: (§1) Synthesis of the amine salt was carried out as previously disclosed above. Fresh water was utilized as the base fluid in this example.
(§2) A hot-rolling dispersion test was conducted using samples of Oxford shale, Foss Eikeland shale and actual shale drilling cutting recovered from a well in the field. […] The resulting mixture was hot rolled for 16 hours at 150° F. After rolling, the remaining shale cuttings were screened from the base fluid using a US 20 mesh screen and washed clean of base fluid with 10% potassium chloride aqueous solution. After drying the samples, they were weighed and the percentage of recovered shale was calculated.

[3] = Hot-Rolling Dispersion in fresh water, Foss Eikeland shale; details: 350 ml freshwater with 10.5 g shale inhibitor, hot rolled 16 hours at 150° F.
Protocol: as §1, §2

[4] = Hot-Rolling Dispersion in fresh water, field cuttings; details: 350 ml freshwater with 10.5 g shale inhibitor, hot rolled 16 hours at 150° F.
Protocol: as §1, §2

[5] = Bentonite Hydration Study, 50 ppb bentonite (Example 6)
Protocol: In this procedure a pint jar was filled with one barrel equivalent of tap water and test sample, adjusted the pH to at least 9 and treated with a 50 ppb portion M-I GEL (bentonite) at a medium shear rate. After stirring for 30 minutes, the rheologies were measured and then the samples were heat aged overnight at 150° F. After the samples were cooled their rheologies and pHs were recorded. The following data is representative of how the rheologies are affected by the addition of the 50 ppb of bentonite in tap water treated with the experimental inhibitors.

[6] = Bentonite inhibition by daily addition of bentonite (Example 7); details: for 300 rpm Rheologies / 600 rpm Rheologies / 3 rpm Rheologies / 10 Min Gels / Plastic Viscosity / Yield Point: 10 ppb inhibitor; for 300 rpm Rheologies / 600 rpm Rheologies: Heat Aged (150° F.); for 3 rpm Rheologies / 10 Min Gels / Plastic Viscosity / Yield Point: Heat Aged (150°)
Protocol: This test procedure uses pint jars that are filled with one barrel equivalent of tap water and 10 ppb of a shale inhibitor. Tap water was used as a control sample. All samples were adjusted to at least a pH of 9 and treated with a 10 ppb portion of M-I GEL (bentonite) at a medium shear rate. After stirring for 30 minutes, the rheologies were measured and then the samples were heat aged overnight at 150° F. After the samples were cooled their rheologies and pHs were recorded. All samples were then adjusted to at least a pH 9 before treating them again with bentonite as previously described. This procedure was carried out for each sample until all were too thick to measure.

Compound: O=[N+]([O-])O [Nitric acid]
Viscosity (centipoises) at pH 9.5 [1]: 610 cps | Viscosity (centipoises) at pH 10.5 [1]: 120 cps | % recovered [2]: 87.6% | % recovered [3]: 69.1% | % recovered [4]: 45.7%

Compound: O=P(O)(O)O [Phosphoric acid]
Viscosity (centipoises) at pH 9.5 [1]: slurry | Viscosity (centipoises) at pH 10.5 [1]: slurry | % recovered [2]: 87.8% | % recovered [3]: 69.1% | % recovered [4]: 42.6%

Compound: Citric acid
Viscosity (centipoises) at pH 9.5 [1]: 2000 cps | Viscosity (centipoises) at pH 10.5 [1]: 180 cps | % recovered [2]: 87.0% | % recovered [3]: 78.0%

More lines, main results first:

Viscosity (centipoises) at pH 9.5 [1]: 1425 cps | Viscosity (centipoises) at pH 10.5 [1]: 33 cps
Compound: CC(=O)O [Acetic acid]
% recovered [2]: 88.0% | % recovered [3]: 72.4% | % recovered [4]: 47.6%

pH ([5]; Heat Aged Rheology (150° F.)): 11.1 | pH ([5]; Initial Rheology): 11.1
Compound: COCCOC(C)COC(C)COC(C)COC(C)COC(C)COC(C)COC(C)COC(C)COCC(C)N (stereo not shown) [Jeffamine M-600]
shale hydration inhibition, judgement [5]: performed well as shale hydration inhibitors | Gels 10 sec. ([5]; Heat Aged Rheology (150° F.)): 1 lbs/100 ft^2 | Gels 10 min. ([5]; Heat Aged Rheology (150° F.)): 1 lbs/100 ft^2 | PV ([5]; Heat Aged Rheology (150° F.)): 16 CPS | Rheology 3 RPM ([5]; Heat Aged Rheology (150° F.)): 1 | Rheology 6 RPM ([5]; Heat Aged Rheology (150° F.)): 1 | Rheology 100 RPM ([5]; Heat Aged Rheology (150° F.)): 10 | Rheology 200 RPM ([5]; Heat Aged Rheology (150° F.)): 17 | Rheology 300 RPM ([5]; Heat Aged Rheology (150° F.)): 24 | Rheology 600 RPM ([5]; Heat Aged Rheology (150° F.)): 40 | YP ([5]; Heat Aged Rheology (150° F.)): 8 lbs/100 ft^2 | Gels 10 sec. ([5]; Initial Rheology): 11 lbs/100 ft^2 | Gels 10 min. ([5]; Initial Rheology): 25 lbs/100 ft^2 | PV ([5]; Initial Rheology): 19 CPS | Rheology 3 RPM ([5]; Initial Rheology): 4 | Rheology 6 RPM ([5]; Initial Rheology): 5 | Rheology 100 RPM ([5]; Initial Rheology): 17 | Rheology 200 RPM ([5]; Initial Rheology): 25 | Rheology 300 RPM ([5]; Initial Rheology): 33 | Rheology 600 RPM ([5]; Initial Rheology): 52 | YP ([5]; Initial Rheology): 14 lbs/100 ft^2 | 300 rpm Rheologies ([6]; Bentonite 30 lb/bbl): 9 | 600 rpm Rheologies ([6]; Bentonite 30 lb/bbl): 18 | 3 rpm Rheologies ([6]; Bentonite 30 lb/bbl): 0 | 10 Min Gels ([6]; Bentonite 30 lb/bbl): 0 lbs/100 ft^2 | Plastic Viscosity ([6]; Bentonite 30 lb/bbl): 9 CPS | Yield Point ([6]; Bentonite 30 lb/bbl): 1 lbs/100 ft^2 | 300 rpm Rheologies ([6]; Bentonite 40 lb/bbl): 18 | 600 rpm Rheologies ([6]; Bentonite 40 lb/bbl): 35 | 3 rpm Rheologies ([6]; Bentonite 40 lb/bbl): 0 | 10 Min Gels ([6]; Bentonite 40 lb/bbl): 0 lbs/100 ft^2 | Plastic Viscosity ([6]; Bentonite 40 lb/bbl): 16 CPS | Yield Point ([6]; Bentonite 40 lb/bbl): 1 lbs/100 ft^2 | 300 rpm Rheologies ([6]; Bentonite 50 lb/bbl): 41 | 600 rpm Rheologies ([6]; Bentonite 50 lb/bbl): 74 | 3 rpm Rheologies ([6]; Bentonite 50 lb/bbl): 0 | 10 Min Gels ([6]; Bentonite 50 lb/bbl): 0 lbs/100 ft^2 | Plastic Viscosity ([6]; Bentonite 50 lb/bbl): 33 CPS | Yield Point ([6]; Bentonite 50 lb/bbl): 8 lbs/100 ft^2 | 300 rpm Rheologies ([6]; Bentonite 60 lb/bbl): 71 | 600 rpm Rheologies ([6]; Bentonite 60 lb/bbl): 146 | 3 rpm Rheologies ([6]; Bentonite 60 lb/bbl): 0 | 10 Min Gels ([6]; Bentonite 60 lb/bbl): 0 lbs/100 ft^2 | Plastic Viscosity ([6]; Bentonite 60 lb/bbl): 75 CPS | Yield Point ([6]; Bentonite 60 lb/bbl): 4 lbs/100 ft^2 | 300 rpm Rheologies ([6]; Bentonite 70 lb/bbl): 121 | 600 rpm Rheologies ([6]; Bentonite 70 lb/bbl): 259 | 3 rpm Rheologies ([6]; Bentonite 70 lb/bbl): 0 | 10 Min Gels ([6]; Bentonite 70 lb/bbl): 3 lbs/100 ft^2 | Plastic Viscosity ([6]; Bentonite 70 lb/bbl): 138 CPS | Yield Point ([6]; Bentonite 70 lb/bbl): 17 lbs/100 ft^2 | shale hydration inhibition, judgement ([6]; daily addition of bentonite): performs as a shale hydration inhibitor
